What follows are cell lines tested with CC(=O)c1c(C)c2cnc(Nc3ccc(N4CCN(CCOCCOCCOCCNC(=O)COc5cccc6c5C(=O)N(C5CCC(=O)NC5=O)C6=O)CC4)cn3)nc2n(C2CCCC2)c1=O [BSJ-03-123] (assay: increase in dead-cell fraction, 72 h; higher = more death). Details: 0.001 µM.
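Note: breast cancer cell lines in 384-well plates, stained with Hoechst plus LIVE/DEAD far red dye and imaged, cells above an LDR intensity threshold counted dead, Hoechst-negative corpses included.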

First: MDAMB453
Second: MDAMB468
The “increase in dead-cell fraction” value of the first is higher: -0.0008 for the first, -0.0103 for the second.

First: MGH312
Second: PDX1258
The “increase in dead-cell fraction” value of the first is higher: -0.0024 for the first, -0.0086 for the second.

In the case of PDX1328, the “increase in dead-cell fraction” value is reported as -0.0042.

Same assay, conditions: 0.003162 µM

First: MDAMB453
Second: MDAMB468
The “increase in dead-cell fraction” value of the first is lower: -0.0002 for the first, 0.0028 for the second.

Compared with MGH312, PDX1258 is higher in “increase in dead-cell fraction” value: 0.0067 for the first, 0.027 for the second.

In the case of PDX1328, the “increase in dead-cell fraction” value is reported as -0.0045.

Same assay, conditions: 0.01 µM

First: MDAMB453
Second: MDAMB468
The “increase in dead-cell fraction” value of the first is lower: -0.0018 for the first, 0.0034 for the second.

Compared with MGH312, PDX1258 is lower in “increase in dead-cell fraction” value: 0.0098 for the first, -0.004 for the second.

In the case of PDX1328, the “increase in dead-cell fraction” value is reported as -0.0076.

Same assay, conditions: 0.03162 µM

First: MDAMB453
Second: MDAMB468
The “increase in dead-cell fraction” value of the first is higher: 0.0081 for the first, 0.0062 for the second.

First: MGH312
Second: PDX1258
The “increase in dead-cell fraction” value of the first is higher: -0.0134 for the first, -0.0154 for the second.

In the case of PDX1328, the “increase in dead-cell fraction” value is reported as -0.0013.

Same assay, conditions: 0.1 µM

Compared with MDAMB453, MDAMB468 is higher in “increase in dead-cell fraction” value: 0.0016 for the first, 0.0131 for the second.

Going from MGH312 to PDX1258, the “increase in dead-cell fraction” value rises from 0.0037 to 0.0044.

With PDX1328 the “increase in dead-cell fraction” value was -0.006.

Same assay, conditions: 0.3162 µM

First: MDAMB453
Second: MDAMB468
The “increase in dead-cell fraction” value of the first is lower: 0.0031 for the first, 0.0169 for the second.

Compared with MGH312, PDX1258 is lower in “increase in dead-cell fraction” value: 0.0116 for the first, -0.0026 for the second.

In the case of PDX1328, the “increase in dead-cell fraction” value is reported as -0.0065.

Same assay, conditions: 1 µM

Going from MDAMB453 to MDAMB468, the “increase in dead-cell fraction” value rises from 0.0138 to 0.0332.

Going from MGH312 to PDX1258, the “increase in dead-cell fraction” value falls from 0.0094 to -0.001.

In the case of PDX1328, the “increase in dead-cell fraction” value is reported as -0.0104.

Same assay, conditions: 3.162 µM

Going from MDAMB453 to MDAMB468, the “increase in dead-cell fraction” value rises from 0.007 to 0.0309.

First: MGH312
Second: PDX1258
The “increase in dead-cell fraction” value of the first is higher: 0.0031 for the first, -0.0102 for the second.

In the case of PDX1328, the “increase in dead-cell fraction” value is reported as -0.0015.

Same assay, conditions: 10 µM

Going from MDAMB453 to MDAMB468, the “increase in dead-cell fraction” value rises from 0.0618 to 0.128.

First: MGH312
Second: PDX1258
The “increase in dead-cell fraction” value of the first is higher: 0.55 for the first, 0.284 for the second.

In the case of PDX1328, the “increase in dead-cell fraction” value is reported as 0.0283.

Each cell line was assayed with CN(C)C(=O)c1cc2cnc(Nc3ccc(N4CCNCC4)cn3)nc2n1C1CCCC1 [LEE011/Ribociclib] in the same assay as above. Details: 0.001 µM.

First: MDAMB453
Second: MDAMB468
The “increase in dead-cell fraction” value of the first is higher: 0.0026 for the first, -0.0034 for the second.

Going from MGH312 to PDX1258, the “increase in dead-cell fraction” value rises from -0.0153 to -0.0077.

In the case of PDX1328, the “increase in dead-cell fraction” value is reported as -0.0001.

Same assay, conditions: 0.003162 µM

First: MDAMB453
Second: MDAMB468
The “increase in dead-cell fraction” value of the first is higher: 0.0128 for the first, -0.0042 for the second.

Going from MGH312 to PDX1258, the “increase in dead-cell fraction” value rises from -0.0081 to 0.003.

For PDX1328, the “increase in dead-cell fraction” value was -0.0049.

Same assay, conditions: 0.01 µM

First: MDAMB453
Second: MDAMB468
The “increase in dead-cell fraction” value of the first is higher: 0.0136 for the first, 0.0065 for the second.

Going from MGH312 to PDX1258, the “increase in dead-cell fraction” value falls from 0.0061 to -0.0078.

With PDX1328 the “increase in dead-cell fraction” value was -0.0091.

Same assay, conditions: 0.03162 µM

Compared with MDAMB453, MDAMB468 is lower in “increase in dead-cell fraction” value: 0.016 for the first, -0.0098 for the second.

Going from MGH312 to PDX1258, the “increase in dead-cell fraction” value falls from -0.0004 to -0.0297.

In the case of PDX1328, the “increase in dead-cell fraction” value is reported as -0.0001.

Same assay, conditions: 0.1 µM

Going from MDAMB453 to MDAMB468, the “increase in dead-cell fraction” value falls from 0.025 to -0.0059.

First: MGH312
Second: PDX1258
The “increase in dead-cell fraction” value of the first is higher: 0.001 for the first, -0.0249 for the second.

For PDX1328, the “increase in dead-cell fraction” value was 0.0131.

Same assay, conditions: 0.3162 µM

Compared with MDAMB453, MDAMB468 is lower in “increase in dead-cell fraction” value: 0.0275 for the first, -0.0074 for the second.

Compared with MGH312, PDX1258 is higher in “increase in dead-cell fraction” value: -0.0068 for the first, 0.0184 for the second.

With PDX1328 the “increase in dead-cell fraction” value was 0.0012.

Same assay, conditions: 1 µM

Compared with MDAMB453, MDAMB468 is lower in “increase in dead-cell fraction” value: 0.0212 for the first, -0.0071 for the second.

Going from MGH312 to PDX1258, the “increase in dead-cell fraction” value falls from 0.006 to -0.0032.

With PDX1328 the “increase in dead-cell fraction” value was -0.0011.

Same assay, conditions: 3.162 µM

Going from MDAMB453 to MDAMB468, the “increase in dead-cell fraction” value falls from 0.0344 to -0.01.

Compared with MGH312, PDX1258 is lower in “increase in dead-cell fraction” value: 0.004 for the first, 0.0025 for the second.

For PDX1328, the “increase in dead-cell fraction” value was 0.005.

Same assay, conditions: 10 µM

First: MDAMB453
Second: MDAMB468
The “increase in dead-cell fraction” value of the first is higher: 0.05 for the first, -0.0011 for the second.

Compared with MGH312, PDX1258 is higher in “increase in dead-cell fraction” value: -0.0032 for the first, 0.0066 for the second.

PDX1328 was tested, and the “increase in dead-cell fraction” value was 0.0126.

What follows are cell lines tested with CCN1CCN(Cc2ccc(Nc3ncc(F)c(-c4cc(F)c5nc(C)n(C(C)C)c5c4)n3)nc2)CC1 in the same assay as above. Details: 0.001 µM.

Compared with MDAMB453, MDAMB468 is lower in “increase in dead-cell fraction” value: 0.0151 for the first, 0.0107 for the second.

Compared with MGH312, PDX1258 is higher in “increase in dead-cell fraction” value: -0.0051 for the first, 0.0001 for the second.

For PDX1328, the “increase in dead-cell fraction” value was 0.0018.

Same assay, conditions: 0.003162 µM

Compared with MDAMB453, MDAMB468 is lower in “increase in dead-cell fraction” value: 0.0243 for the first, 0.0019 for the second.

Compared with MGH312, PDX1258 is lower in “increase in dead-cell fraction” value: -0.0048 for the first, -0.0098 for the second.

With PDX1328 the “increase in dead-cell fraction” value was -0.0052.

Same assay, conditions: 0.01 µM

First: MDAMB453
Second: MDAMB468
The “increase in dead-cell fraction” value of the first is higher: 0.117 for the first, -0.0006 for the second.

First: MGH312
Second: PDX1258
The “increase in dead-cell fraction” value of the first is higher: -0.0002 for the first, -0.0015 for the second.

PDX1328 was tested, and the “increase in dead-cell fraction” value was 0.0039.

Same assay, conditions: 0.03162 µM

Going from MDAMB453 to MDAMB468, the “increase in dead-cell fraction” value falls from 0.134 to -0.0012.

Going from MGH312 to PDX1258, the “increase in dead-cell fraction” value falls from -0.0029 to -0.003.

In the case of PDX1328, the “increase in dead-cell fraction” value is reported as 0.0167.

Same assay, conditions: 0.1 µM

Going from MDAMB453 to MDAMB468, the “increase in dead-cell fraction” value falls from 0.124 to -0.0016.

Compared with MGH312, PDX1258 is higher in “increase in dead-cell fraction” value: -0.0075 for the first, -0.0037 for the second.

For PDX1328, the “increase in dead-cell fraction” value was 0.0116.

Same assay, conditions: 0.3162 µM

First: MDAMB453
Second: MDAMB468
The “increase in dead-cell fraction” value of the first is higher: 0.104 for the first, -0.0021 for the second.

First: MGH312
Second: PDX1258
The “increase in dead-cell fraction” value of the first is higher: 0.0016 for the first, 0.0003 for the second.

PDX1328 was tested, and the “increase in dead-cell fraction” value was 0.0089.

Same assay, conditions: 1 µM

Compared with MDAMB453, MDAMB468 is lower in “increase in dead-cell fraction” value: 0.15 for the first, 0.019 for the second.

Compared with MGH312, PDX1258 is higher in “increase in dead-cell fraction” value: -0.0026 for the first, 0.0382 for the second.

For PDX1328, the “increase in dead-cell fraction” value was 0.0192.

Same assay, conditions: 3.162 µM

Going from MDAMB453 to MDAMB468, the “increase in dead-cell fraction” value falls from 0.147 to 0.101.

First: MGH312
Second: PDX1258
The “increase in dead-cell fraction” value of the first is lower: 0.0207 for the first, 0.142 for the second.

PDX1328 was tested, and the “increase in dead-cell fraction” value was 0.029.

Same assay, conditions: 10 µM

Going from MDAMB453 to MDAMB468, the “increase in dead-cell fraction” value falls from 0.626 to 0.545.

Compared with MGH312, PDX1258 is higher in “increase in dead-cell fraction” value: 0.208 for the first, 0.354 for the second.

With PDX1328 the “increase in dead-cell fraction” value was 0.475.

— the supplement of paper PMC9663587
